One data set addresses hERG (Homo sapiens (Human), UniProt Q12809). Put plainly: Patch clamp assay (hERG tail currents, whole-cell). The format is cell-based. The conditions noted are these: hERG transfected HEK 293 cells; for hERG % Remaining 30 μM: 30 μM compound; for hERG % Remaining 10 μM: 10 μM compound; for hERG % Remaining 1 μM: 1 μM compound; for hERG % Remaining 3 μM: 3 μM compound; for hERG % Remaining 100 μM: 100 μM compound. For orientation: In patch-clamp work, channel activity is measured electrically.

The target in another data set is Menin-MLL (Homo sapiens (Human), UniProt O00255). The data set can be described thus: Determination of binding constants (Ki) to Menin-MLL (HTRF). The conditions noted are these: HTRF, 0.25 nM H-FL-Menin, 3.2 nM FITC-MLL-4-43, 24 hr incubation; for Ki: read-out: Menin-MLL Ki HTRF Assay: Ki.

A value given as a limit tells only on which side of the number the result lay.

A word on the IC50: it is the concentration that gives 50% inhibition. Higher therefore signals weaker potency in that assay. Broadly, the Ki is the equilibrium dissociation constant of an inhibitor or competing ligand from its target. As a reminder, the EC50 is the concentration that produces a half-maximal response.

Menin-MLL, sequence (O00255 whole entry): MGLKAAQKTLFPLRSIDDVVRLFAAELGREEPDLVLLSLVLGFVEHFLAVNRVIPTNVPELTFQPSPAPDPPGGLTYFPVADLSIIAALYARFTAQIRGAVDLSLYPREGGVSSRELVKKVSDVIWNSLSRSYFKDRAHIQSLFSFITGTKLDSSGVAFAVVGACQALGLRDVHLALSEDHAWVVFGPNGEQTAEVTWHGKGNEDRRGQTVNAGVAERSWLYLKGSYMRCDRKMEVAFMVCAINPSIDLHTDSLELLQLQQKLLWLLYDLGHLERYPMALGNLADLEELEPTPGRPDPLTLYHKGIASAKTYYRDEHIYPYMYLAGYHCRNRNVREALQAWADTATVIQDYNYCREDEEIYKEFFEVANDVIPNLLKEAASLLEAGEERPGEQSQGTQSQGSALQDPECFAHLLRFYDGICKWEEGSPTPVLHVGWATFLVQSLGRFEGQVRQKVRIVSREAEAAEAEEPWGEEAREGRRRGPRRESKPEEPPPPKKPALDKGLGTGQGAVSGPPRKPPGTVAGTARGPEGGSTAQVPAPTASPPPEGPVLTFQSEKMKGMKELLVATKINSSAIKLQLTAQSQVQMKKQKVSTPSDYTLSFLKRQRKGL
hERG, sequence (Q12809 whole entry): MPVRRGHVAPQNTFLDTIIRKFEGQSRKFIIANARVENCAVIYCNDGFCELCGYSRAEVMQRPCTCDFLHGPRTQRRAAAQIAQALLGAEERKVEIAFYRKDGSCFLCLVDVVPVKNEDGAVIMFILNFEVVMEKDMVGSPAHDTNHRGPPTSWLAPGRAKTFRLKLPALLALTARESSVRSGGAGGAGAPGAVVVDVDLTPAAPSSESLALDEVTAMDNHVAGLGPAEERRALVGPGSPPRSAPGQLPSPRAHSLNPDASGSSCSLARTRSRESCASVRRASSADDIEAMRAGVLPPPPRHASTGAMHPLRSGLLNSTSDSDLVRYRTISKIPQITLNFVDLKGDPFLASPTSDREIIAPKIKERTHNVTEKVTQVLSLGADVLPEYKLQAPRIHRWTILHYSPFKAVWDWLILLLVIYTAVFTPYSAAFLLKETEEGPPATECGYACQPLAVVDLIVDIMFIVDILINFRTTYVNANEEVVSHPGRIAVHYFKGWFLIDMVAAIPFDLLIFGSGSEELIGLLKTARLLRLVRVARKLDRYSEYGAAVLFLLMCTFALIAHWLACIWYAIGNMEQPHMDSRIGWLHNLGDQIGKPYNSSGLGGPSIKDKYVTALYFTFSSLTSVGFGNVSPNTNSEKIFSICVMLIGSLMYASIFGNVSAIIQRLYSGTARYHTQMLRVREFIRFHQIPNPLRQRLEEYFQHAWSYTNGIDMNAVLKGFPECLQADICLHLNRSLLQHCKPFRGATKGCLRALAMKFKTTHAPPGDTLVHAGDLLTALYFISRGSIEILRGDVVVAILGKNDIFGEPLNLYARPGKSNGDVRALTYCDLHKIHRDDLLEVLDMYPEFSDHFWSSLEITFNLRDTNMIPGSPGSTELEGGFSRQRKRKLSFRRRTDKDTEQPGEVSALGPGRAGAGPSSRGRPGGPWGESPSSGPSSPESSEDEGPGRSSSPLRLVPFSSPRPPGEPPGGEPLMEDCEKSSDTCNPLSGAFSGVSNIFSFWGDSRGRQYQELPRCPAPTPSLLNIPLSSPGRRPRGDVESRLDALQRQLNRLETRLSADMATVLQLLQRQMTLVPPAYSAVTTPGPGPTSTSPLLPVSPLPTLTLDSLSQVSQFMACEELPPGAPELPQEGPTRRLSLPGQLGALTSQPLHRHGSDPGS
Method for hERG: The 35 mm culture dishes upon which cells were seeded at a density allowing single cells to be recorded were placed on the dish holder of the microscope and continuously perfused (at approximately 1 mL/min) with the bath solution described in section 4.6. All solutions applied to cells including the pipette solution were maintained at room temperature (19° C. to 30° C.). After formation of a Gigaohm seal between the patch electrodes and individual hERG stably transfected HEK 293 cells (pipette resistance range: 2.0 MΩ2 to 7.0 MΩ; seal resistance range: >1GΩ) the cell membrane across the pipette tip was ruptured to assure electrical access to the cell interior (whole-cell patch-configuration). In case the quality of the seal was poor, the process of seal formation was repeated with a different cell and a new pipette. As soon as a stable seal could be established, hERG outward tail currents were measured upon depolarization of the cell membrane to +20 mV for 2s (activation of channels) from a holding potential of −80 mV and upon subsequent repolarization to −40 mV for 3 s. This voltage protocol (as shown below) was run at least 10 times at intervals of 10 s. If current density was judged to be too low for measurement, another cell was recorded.
During wash-in of the test item the voltage protocol indicated above was run continuously again at 10 s intervals until the steady-state level of block was reached.
The IC50 was determined by fitting the dose response curve with a 2-parameter logistic function (amax=100%).

As to `CCNS(=O)(=O)N[C@@H]1CC[C@@H](CN2CCC3(CC2)CN(c2ncnnc2Oc2ccc(F)cc2C(=O)N(CC(F)(F)F)C(C)C)C3)OC1` (single isomer, unassigned) [Compound 193], at hERG, the “hERG % Remaining 30 μM” value was “+++ (“+++” means ≥66%)” and the half-inhibitory concentration (IC50) was not below 50000 nM. For the same compound, the inhibitory constant (Ki) on Menin-MLL is less than 1 nM.

`CCN(C(=O)c1cc(F)ccc1Oc1cncnc1N1CC2(CCN(C[C@@H]3CC[C@@H](NS(C)(=O)=O)CO3)CC2)C1)C(C)C` [Compound 1, N-ethyl-5-fluoro-N-isopropyl-2-((4-(7-(((2S,5R)-5-(methylsulfonamido)tetrahydro-2H-pyran-2-yl)methyl)-2,7-diazaspiro[3.5]nonan-2-yl)pyrimidin-5-yl)oxy)benzamide]: at hERG, the “hERG % Remaining 10 μM” value is listed as “+++ (“+++” means ≥66%)”; the “hERG % Remaining 30 μM” value was “++ (“++” means ≥33% and <66%)”. Further, on Menin-MLL, the EC50 is less than 50 nM and the Ki was less than 1 nM.

`CCN(C(=O)c1cc(F)ccc1Oc1cncnc1N1CC2(CCN(C[C@@H]3CC[C@@H](NS(=O)(=O)CC)CO3)CC2)C1)C(C)C` [Compound 2, N-ethyl-2-((4-(7-(((2S,5R)-5-(ethylsulfonamido)tetrahydro-2H-pyran-2-yl)methyl)-2,7-diazaspiro[3.5]nonan-2-yl)pyrimidin-5-yl)oxy)-5-fluoro-N-isopropylbenzamide]: on hERG, the “hERG % Remaining 10 μM” value is reported as “+++ (“+++” means ≥66%)” and the “hERG % Remaining 30 μM” value is “+++ (“+++” means ≥66%)”. On Menin-MLL, the EC50 was less than 50 nM and the inhibition constant (Ki) was less than 1 nM.

Turning to `CCN(C(=O)c1cc(F)ccc1Oc1cncnc1N1CC2(CCN(C[C@@H]3CC[C@@H](NS(=O)(=O)C4CC4)CO3)CC2)C1)C(C)C` [Compound 4, 2-((4-(7-(((2S,5R)-5-(cyclopropanesulfonamido)tetrahydro-2H-pyran-2-yl)methyl)-2,7-diazaspiro[3.5]nonan-2-yl)pyrimidin-5-yl)oxy)-N-ethyl-5-fluoro-N-isopropylbenzamide], at hERG, the “hERG % Remaining 10 μM” value is listed as “+++ (“+++” means ≥66%)”, the “hERG % Remaining 30 μM” value is reported as “+++ (“+++” means ≥66%)” and the half-inhibitory concentration (IC50) was not below 50000 nM. For the same compound, on Menin-MLL, the EC50 was less than 50 nM and the inhibitory constant (Ki) was less than 1 nM.

With `CCN(C(=O)c1cc(F)ccc1Oc1cncnc1N1CC2(CCN(C[C@@H]3CC[C@@H](NS(=O)(=O)C4CCC4)CO3)CC2)C1)C(C)C` [Compound 6, 2-((4-(7-(((2S,5R)-5-(cyclobutanesulfonamido)tetrahydro-2H-pyran-2-yl)methyl)-2,7-diazaspiro[3.5]nonan-2-yl)pyrimidin-5-yl)oxy)-N-ethyl-5-fluoro-N-isopropylbenzamide], at hERG, the “hERG % Remaining 10 μM” value is “+++ (“+++” means ≥66%)”; the “hERG % Remaining 30 μM” value was “++ (“++” means ≥33% and <66%)”. Further, on Menin-MLL, the EC50 is less than 50 nM and the inhibition constant Ki was less than 1 nM.

For `CCN(C(=O)c1cc(F)ccc1Oc1cncnc1N1CC2(CCN(C[C@@H]3CC[C@@H](NC(=O)OC(C)(C)C)CO3)CC2)C1)C(C)C` [Compound 11, tert-butyl ((3R,6S)-6-((2-(5-(2-(ethyl(isopropyl)carbamoyl)-4-fluorophenoxy)pyrimidin-4-yl)-2,7-diazaspiro[3.5]nonan-7-yl)methyl)tetrahydro-2H-pyran-3-yl)carbamate], on hERG, the “hERG % Remaining 10 μM” value was “+ (“+” means <33%)” and the “hERG % Remaining 30 μM” value was “+ (“+” means <33%)”. At Menin-MLL, the EC50 was less than 50 nM and the inhibition constant Ki was less than 1 nM.

As to `CC(C)N(C(=O)c1cc(F)ccc1Oc1cncnc1N1CC2(CCN(C[C@@H]3CC[C@@H](NS(C)(=O)=O)CO3)CC2)C1)C(C)C` [Compound 12, 5-fluoro-N,N-diisopropyl-2-((4-(7-(((2S,5R)-5-(methylsulfonamido)tetrahydro-2H-pyran-2-yl)methyl)-2,7-diazaspiro[3.5]nonan-2-yl)pyrimidin-5-yl)oxy)benzamide], on hERG, the “hERG % Remaining 1 μM” value is on record as “+++ (“+++” means ≥66%)”, the “hERG % Remaining 3 μM” value was “+++ (“+++” means ≥66%)”, the “hERG % Remaining 10 μM” value is given as “+++ (“+++” means ≥66%)” and the “hERG % Remaining 30 μM” value is reported as “+++ (“+++” means ≥66%)”. In addition, on hERG, the “hERG % Remaining 100 μM” value is “++ (“++” means ≥33% and <66%)”; the half-inhibitory concentration (IC50) was not below 50000 nM. Moreover, at Menin-MLL, the half-maximal effective concentration (EC50) is less than 50 nM and the Ki is less than 1 nM.

For the compound `CCS(=O)(=O)N[C@@H]1CC[C@@H](CN2CCC3(CC2)CN(c2ncncc2Oc2ccc(F)cc2C(=O)N(C(C)C)C(C)C)C3)OC1` [Compound 13, 2-((4-(7-(((2S,5R)-5-(ethylsulfonamido)tetrahydro-2H-pyran-2-yl)methyl)-2,7-diazaspiro[3.5]nonan-2-yl)pyrimidin-5-yl)oxy)-5-fluoro-N,N-diisopropylbenzamide], at hERG, the “hERG % Remaining 1 μM” value was “+++ (“+++” means ≥66%)”; the “hERG % Remaining 3 μM” value is “+++ (“+++” means ≥66%)”; the “hERG % Remaining 10 μM” value is “+++ (“+++” means ≥66%)”; the “hERG % Remaining 30 μM” value was “++ (“++” means ≥33% and <66%)”. In addition, on hERG, the “hERG % Remaining 100 μM” value is “++ (“++” means ≥33% and <66%)”; the half-inhibitory concentration (IC50) was not below 50000 nM. Besides, at Menin-MLL, the half-maximal effective concentration (EC50) is less than 50 nM and the Ki is less than 1 nM.

Turning to `CC(C)N(C(=O)c1cc(F)ccc1Oc1cncnc1N1CC2(CCN(C[C@@H]3CC[C@@H](NS(=O)(=O)C(C)C)CO3)CC2)C1)C(C)C` [Compound 14, 5-fluoro-N,N-diisopropyl-2-((4-(7-(((2S,5R)-5-((1-methylethyl)sulfonamido)tetrahydro-2H-pyran-2-yl)methyl)-2,7-diazaspiro[3.5]nonan-2-yl)pyrimidin-5-yl)oxy)benzamide], on hERG, the “hERG % Remaining 3 μM” value is “+++ (“+++” means ≥66%)”; the “hERG % Remaining 10 μM” value is listed as “+++ (“+++” means ≥66%)”; the “hERG % Remaining 30 μM” value was “++ (“++” means ≥33% and <66%)”; the “hERG % Remaining 100 μM” value was “+ (“+” means <33%)”. Further, the IC50 against hERG fell in the range of 25000 to 50000 nM. In addition, on Menin-MLL, the EC50 is less than 50 nM and the Ki is less than 1 nM.

As for `CC(C)N(C(=O)c1cc(F)ccc1Oc1cncnc1N1CC2(CCN(C[C@@H]3CC[C@@H](NS(=O)(=O)C4CC4)CO3)CC2)C1)C(C)C` [Compound 15, 2-((4-(7-(((2S,5R)-5-(cyclopropanesulfonamido)tetrahydro-2H-pyran-2-yl)methyl)-2,7-diazaspiro[3.5]nonan-2-yl)pyrimidin-5-yl)oxy)-5-fluoro-N,N-diisopropylbenzamide], on hERG, the “hERG % Remaining 3 μM” value is reported as “+++ (“+++” means ≥66%)”; the “hERG % Remaining 10 μM” value is given as “+++ (“+++” means ≥66%)”; the “hERG % Remaining 30 μM” value was “++ (“++” means ≥33% and <66%)”; the “hERG % Remaining 100 μM” value is reported as “+ (“+” means <33%)”. The same compound had a concentration for half-maximal inhibition (IC50) on hERG of 25000 to 50000 nM. In addition, on Menin-MLL, the EC50 was less than 50 nM and the inhibition constant (Ki) is less than 1 nM.

For `CCS(=O)(=O)N[C@@H]1CC[C@@H](CN2CCC3(CC2)CN(c2ncncc2Oc2ccc(F)cc2C(=O)N(C(C)C)C2CC(F)C2)C3)OC1` (stereo partly drawn) [Compound 244, 2-((4-(7-(((2S,5R)-5-(ethylsulfonamido)tetrahydro-2H-pyran-2-yl)methyl)-2,7-diazaspiro[3.5]nonan-2-yl)pyrimidin-5-yl)oxy)-5-fluoro-N-((1s,3s)-3-fluorocyclobutyl)-N-isopropylbenzamide], at hERG, the “hERG % Remaining 10 μM” value is reported as “+++ (“+++” means ≥66%)”; the “hERG % Remaining 30 μM” value is “++ (“++” means ≥33% and <66%)”.

On to `CCS(=O)(=O)N[C@@H]1CC[C@@H](CN2CCC3(CC2)CN(c2ncncc2Oc2ccc(F)cc2C(=O)N(C[C@@H](O)CO)C(C)C)C3)OC1` [Compound 255, N-((R)-2,3-Dihydroxypropyl)-2-((4-(7-(((2S,5R)-5-(ethylsulfonamido)tetrahydro-2H-pyran-2-yl)methyl)-2,7-diazaspiro[3.5]nonan-2-yl)pyrimidin-5-yl)oxy)-5-fluoro-N-isopropylbenzamide], for which, on Menin-MLL, the EC50 is less than 50 nM and the inhibition constant Ki is less than 1 nM.

In the case of `CCS(=O)(=O)N[C@@H]1CC[C@@H](CN2CCC3(CC2)CN(c2ncncc2Oc2ccc(F)cc2C(=O)N(C(C)C)[C@H]2C[C@H](O)C2)C3)OC1` [Compound 259, 2-((4-(7-(((2S,5R)-5-(Ethylsulfonamido)tetrahydro-2H-pyran-2-yl)methyl)-2,7-diazaspiro[3.5]nonan-2-yl)pyrimidin-5-yl)oxy)-5-fluoro-N-((1r,3r)-3-hydroxycyclobutyl)-N-isopropylbenzamide], at Menin-MLL, the EC50 is less than 50 nM and the Ki is less than 1 nM.

Turning to `CCS(=O)(=O)N[C@@H]1CC[C@@H](CN2CCC3(CC2)CN(c2ncncc2Oc2ccc(F)cc2C(=O)N(c2ccccc2)C(C)C)C3)OC1` [Compound 260, 2-((4-(7-(((2S,5R)-5-(Ethylsulfonamido)tetrahydro-2H-pyran-2-yl)methyl)-2,7-diazaspiro[3.5]nonan-2-yl)pyrimidin-5-yl)oxy)-5-fluoro-N-isopropyl-N-phenylbenzamide], the EC50 on Menin-MLL is less than 50 nM.

In turn, `CCS(=O)(=O)N[C@@H]1CC[C@@H](CN2CCC3(CC2)CN(c2ncncc2Oc2ccc(F)cc2C(=O)N(c2ccccc2)c2ccccc2)C3)OC1` [Compound 261] displayed an EC50 on Menin-MLL of less than 50 nM.

For the compound `CCN(C(=O)c1cc(F)ccc1Oc1cncnc1N1CC2(CCN(C[C@H]3CC[C@H](NS(=O)(=O)CC)CC3)CC2)C1)C(C)C` [SNDX-5613], at hERG, the “hERG % Remaining 1 μM” value was “+++ (“+++” means ≥66%)”; the “hERG % Remaining 3 μM” value is “+++ (“+++” means ≥66%)”; the “hERG % Remaining 10 μM” value was “++ (“++” means ≥33% and <66%)”; the “hERG % Remaining 30 μM” value is “++ (“++” means ≥33% and <66%)”. In addition, on hERG, the “hERG % Remaining 100 μM” value is on record as “+ (“+” means <33%)” and the IC50 is less than 25000 nM.

The values above are taken from US11919901B2 (Syndax Pharmaceuticals, Inc., priority 2021, dated 2024).
